The record followed here is ChEMBL document CHEMBL1147167, “New 1,3-dioxolane and 1,3-dioxane derivatives as effective modulators to overcome multidrug resistance” (2007).

The subject of this assay is Caco-2. The experiment in a line: Antiproliferative activity against human Caco-2 cells assessed as cell viability by MTT assay after 48 hrs. The assay is classed as functional.
Where [1] appears, read: Homo sapiens, Caco-2, 48 h, read-out: IC10.

As for `c1ccc(C(CCCCN2CCN(CCCCOc3ccc(C4OC(c5ccccc5)C(c5ccccc5)O4)cc3)CC2)c2ccccc2)cc1` (configuration not stated), under setting [1], the 10% effect concentration (IC10) amounted to 17.5 µM.

In the case of `CN1CCN(CCCOc2ccc(C3O[C@H](c4ccccc4)[C@@H](c4ccccc4)O3)cc2)CC1` (relative stereo), the 10% effect concentration (IC10) is 19.5 µM.

On to `c1ccc(C(CCCCN2CCN(CCCCC3COC(c4ccccc4)(c4ccccc4)O3)CC2)c2ccccc2)cc1` (configuration not stated), for which the 10% effect concentration (IC10) under setting [1] amounted to 5.85 µM.

On to `CC1OC(c2ccccc2)(c2ccccc2)OCC1CN1CCN(C)CC1` (configuration not stated), for which the 10% effect concentration (IC10) under setting [1] is 9.7 µM.

Take `c1ccc(C(CCCCN2CCN(CCCOc3ccc(C4O[C@@H](c5ccccc5)[C@H](c5ccccc5)O4)cc3)CC2)c2ccccc2)cc1` (relative stereo): the IC10 turned out to be 15.9 µM.

In the case of `CN1CCN(CCCOc2ccc(C3OC(c4ccccc4Cl)C(c4ccccc4Cl)O3)cc2)CC1` (configuration not stated), the IC10 under setting [1] was determined as 19.5 µM.

Take `CN1CCN(CCCOc2ccc(C3O[C@@H](c4ccccc4)[C@H](c4ccccc4)O3)cc2)CC1`: under setting [1], the 10% effect concentration (IC10) was found to be 19.9 µM.

Turning to `c1ccc(C(CCCCN2CCN(CCOc3ccc(C4OC(c5ccccc5)C(c5ccccc5)O4)cc3)CC2)c2ccccc2)cc1` (configuration not stated), the IC10 under setting [1] turned out to be 14.7 µM.

`CN1CCN(CCCCC2COC(c3ccccc3)(c3ccccc3)O2)CC1` (configuration not stated): the IC10 under setting [1] came to 10.5 µM.

Turning to `c1ccc(C(CCCN2CCN(CCCOc3ccc(C4OC(c5ccccc5)C(c5ccccc5)O4)cc3)CC2)c2ccccc2)cc1` (configuration not stated), the IC10 under setting [1] amounted to 12.4 µM.

As to `CN1CCN(CCOc2ccc(C3OC(c4ccccc4)C(c4ccccc4)O3)cc2)CC1` (configuration not stated), under setting [1], the 10% effect concentration (IC10) worked out at 8.6 µM.

For `c1ccc(C(CCCCN2CCN(CCCOc3ccc(C4O[C@H](c5ccccc5)[C@@H](c5ccccc5)O4)cc3)CC2)c2ccccc2)cc1`, the IC10 under setting [1] was found to be 16.2 µM.

`CN1CCN(CCCOc2ccc(C3OC(c4ccc(F)cc4)C(c4ccc(F)cc4)O3)cc2)CC1` (configuration not stated): the IC10 under setting [1] was 18.8 µM.

Regarding `CN1CCN(CCCN2c3ccccc3Sc3ccc(C(F)(F)F)cc32)CC1` [TRIFLUOPERAZINE], the concentration for an effect of 10% (IC10) under setting [1] was 11.3 µM.

For `c1ccc(C(CCCCN2CCN(CCCOc3ccc(C4O[C@H](c5ccccc5)[C@H](c5ccccc5)O4)cc3)CC2)c2ccccc2)cc1` (some centres not stated), under setting [1], the IC10 was determined as 16.8 µM.

With `CC1OC(c2ccccc2)(c2ccccc2)OCC1CN1CCN(CCCCC(c2ccccc2)c2ccccc2)CC1` (configuration not stated), under setting [1], the concentration for an effect of 10% (IC10) is 6.1 µM.

`c1ccc(C(CCCCN2CCN(CCCOc3ccc(C4O[C@@H](c5ccccc5)[C@H](c5ccccc5)O4)cc3)CC2)c2ccccc2)cc1`: under setting [1], the IC10 stood at 17.1 µM.

Take `c1ccc(C2(c3ccccc3)OCC(CCCCN3CCCCC3)O2)cc1` (configuration not stated): the concentration for an effect of 10% (IC10) under setting [1] was 18.1 µM.

In the case of `CN1CCN(CCCCOc2ccc(C3OC(c4ccccc4)C(c4ccccc4)O3)cc2)CC1` (configuration not stated), the IC10 under setting [1] came out at 13.8 µM.

For the compound `CN1CCN(CCCOc2ccc(C3O[C@H](c4ccccc4)[C@H](c4ccccc4)O3)cc2)CC1` (some centres not stated), the IC10 under setting [1] stood at 21.1 µM.

As for `OCCN1CCN(CCCOc2ccc(C3OC(c4ccccc4)C(c4ccccc4)O3)cc2)CC1` (configuration not stated), the concentration for an effect of 10% (IC10) under setting [1] is 76.6 µM.

For the compound `c1ccc(C2OC(c3ccc(OCCCN4CCCCC4)cc3)OC2c2ccccc2)cc1` (configuration not stated), under setting [1], the IC10 worked out at 15.3 µM.

For `OCCN1CCN(CCCCC2COC(c3ccccc3)(c3ccccc3)O2)CC1` (configuration not stated), the concentration for an effect of 10% (IC10) under setting [1] came out at 98.3 µM.

In the case of `CN1CCN(CCCOc2ccc(C3O[C@H](c4ccccc4)[C@@H](c4ccccc4)O3)cc2)CC1`, the IC10 under setting [1] was found to be 20.4 µM.

On to `c1ccc(C(CN2CCN(CCCOc3ccc(C4OC(c5ccccc5)C(c5ccccc5)O4)cc3)CC2)c2ccccc2)cc1` (configuration not stated), for which the 10% effect concentration (IC10) under setting [1] came to 6.1 µM.

Regarding `c1ccc(C(CCN2CCN(CCCOc3ccc(C4OC(c5ccccc5)C(c5ccccc5)O4)cc3)CC2)c2ccccc2)cc1` (configuration not stated), under setting [1], the IC10 stood at 18.5 µM.

For `c1ccc(C2OC(c3ccc(OCCCN4CCN(C(c5ccccc5)c5ccccc5)CC4)cc3)OC2c2ccccc2)cc1` (configuration not stated), the concentration for an effect of 10% (IC10) under setting [1] turned out to be 16.4 µM.
